Measured values: patent publication US6956047B1, “Corticotropin releasing factor antagonists” (Pfizer Inc., priority 1995, dated 2005)
Where a name gives a salt, the structure may show the parent alone.

`CCC(CC)Oc1cc(C)nc(Nc2c(C)cc(C)cc2C)c1CN(C)C.Cl` gave a melting point of 85 to 88 °C.
For `CCC(CC)Oc1nc(C)nc(Nc2c(C)cc(C)cc2C)c1CO` [Example 274, [4-(1-Ethyl-propoxy)-2-methyl-6-(2,4,6-trimethyl-phenylamino)-pyrimidin-5-yl]-methanol], the melting point was 121 to 123 °C.
`CCN(CC)c1cc(C)nc(Oc2c(C)cc(Cl)cc2C)c1C` (as salt: HCl) [Example 78, [2-(4-chloro-2,6-dimethyl-phenoxy)-3,6-dimethyl-pyridin-4-yl]-diethyl-amine] gave a melting point of 184 to 185 °C.
With `CCC(CC)Oc1cc(C)nc(Nc2c(C)cc(C)cc2C)c1CNC(=O)CCl` [Example 188, 2-Chloro-N-[4-(1-ethyl-propoxy)-6-methyl-2-(2,4,6-trimethyl-phenylamino)-pyridin-3-ylmethyl]-acetamide] the melting point was 142 to 144 °C.
For `CCC(CC)Oc1cc(C)nc2c1[nH]c(=O)n2-c1c(C)cc(C)cc1C` [Example 279, 7-(1-Ethyl-propoxy)-5-methyl-3-(2,4,6-trimethyl-phenyl)-1,3-dihydro-imidazo[4,5-b]pyridin-2-one], the melting point was 184 to 186 °C.
Molecule `CCCN(CC)c1cc(C)nc(Oc2c(C)cc(Cl)cc2C)c1C` (as salt: HCl) [Example 77, [2-(4-chloro-2,6-dimethyl-phenoxy)-3,6-dimethyl-pyridin-4-yl]-ethyl-propyl-amine] has a melting point of 74 to 76 °C.
Molecule `CCC(CC)Oc1nc(C)nc(Nc2c(C)cc(C)cc2C)c1C(N)=O` [Example 233, 4-(1-Ethyl-propoxy)-2-methyl-6-(2,4,6-trimethyl-phenylamino)-pyrimidine-5-carboxylic acid amide] has a melting point of 174 to 176 °C.
With `Cc1cc(C)c(Oc2nc(C)cc(C(O)C(F)(F)F)c2C)c(C)c1` (stereo not drawn) [Example 212, 1-[3,6-Dimethyl-2-(2,4,6-trimethyl-phenoxy)-pyridin-4-yl]-2,2,2-trifluoro-ethanol] the melting point was 134 to 139 °C.
`CCC(CC)Nc1cc(C)nc2c1nc(N)n2-c1c(C)cc(C)cc1C` [Example 283, N7-(1-Ethyl-propyl)-5-methyl-3-(2,4,6-trimethyl-phenyl)-3H-imidazo[4,5-b]pyridine-2,7-diamine] showed a melting point of 158 to 160 °C.
`CCC(CC)Oc1cc(C)nc(Nc2c(C)cc(C)cc2C)c1CC(C(=O)OC)C(=O)OC` [Example 185, 2-[4-(1-Ethyl-propoxy)-6-methyl-2-(2,4,6-trimethyl-phenylamino)-pyridin-3-ylmethyl]-malonic acid dimethyl ester] gave a melting point of 96 to 98 °C.
With `CCC(CC)Oc1nc(C)nc(Nc2c(C)cc(C)cc2C)c1C(=O)O` [Example 273, 4-(1-Ethyl-propoxy)-2-methyl-6-(2,4,6-trimethyl-phenylamino)-pyrimidine-5-carboxylic acid] the melting point was 118 to 120 °C.
In the case of `CCC(CC)Nc1cc(C)nc(Oc2c(C)cc(C)cc2C)c1NC(C)=O` [Example 98, N-[4-(1-Ethyl-propylamino)-6-methyl-2-(2,4,6-trimethyl-phenoxy)-pyridin-3-yl]-acetamide], the melting point is reported as 154 to 156 °C.
Work on `CCC(CC)Oc1cc(C)nc(Nc2c(C)cc(C)cc2C)c1C(=O)n1ccnc1` [Example 183, [4-(1-Ethyl-propoxy)-6-methyl-2-(2,4,6-trimethyl-phenylamino)-pyridin-3-yl]-imidazol-1-yl-methanone] yielded a melting point of 120 to 122 °C.
`CCCN(CC)c1cc(C)nc(Oc2c(C)cc(C)cc2C)c1C` (as salt: HCl) [Example 72, [3,6-Dimethyl-2-(2,4,6-trimethyl-phenoxy)-pyridin-4-yl]-ethyl-propyl-amine] showed a melting point of 167 to 169 °C.
`CCC(CC)Oc1cc(C)nc(Oc2c(C)cc(C)cc2C)c1[N+](=O)[O-]` [Example 173, 4-(1-Ethyl-propoxy)-6-methyl-3-nitro-2-(2,4,6-trimethyl-phenoxy)-pyridine] showed a melting point of 106 to 109 °C.
Work on `CCC(CC)Oc1cc(C)nc(Oc2c(C)cc(COC)cc2C)c1C` [Example 67, 4-(1-Ethyl-propoxy)-2-(4-methoxymethyl-2,6-dimethyl-phenoxy)-3,6-dimethyl-pyridine] yielded a melting point of 58 to 60 °C.
Molecule `CCC(O)C(CC)Nc1cc(C)nc(Oc2c(C)cc(Cl)cc2C)c1CO` (stereo not drawn) [Example 139, 4-[2-(4-Chloro-2,6-dimethyl-phenoxy)-3-hydroxymethyl-6-methyl-pyridin-4-ylamino]-hexan-3-ol] has a melting point of 145 to 148 °C.
With `CCC(CC)Nc1cc(C)nc(Oc2c(C)cc(C)cc2C)c1CN` [Example 248, [3-Aminomethyl-6-methyl-2-(2,4,6-trimethyl-phenoxy)-pyridin-4-yl]-(1-ethyl-propyl)-amine] the melting point was 117 to 119 °C.
`CCC(Nc1cc(C)nc(Oc2c(C)cc(Cl)cc2C)c1CO)C(C)O` (stereo not drawn) [Example 138, 3-[2-(4-Chloro-2,6-dimethyl-phenoxy)-3-hydroxymethyl-6-methyl-pyridin-4-ylamino]-pentan-2-ol] gave a melting point of 180 to 182 °C.
`CCNc1cc(C)nc(Sc2c(C)cc(C)cc2C)c1C` [Example 71, [3,6-dimethyl-2-(2,4,6-trimethyl-phenylsulfanyl)-pyridin-4-yl]-ethyl-amine] showed a melting point of 114 to 116 °C.
With `CCOC(=S)SCc1c(OC(CC)CC)cc(C)nc1Nc1c(C)cc(C)cc1C` [Example 190, Dithiocarbonic acid O-ethyl ester S-[4-(1-ethyl-propoxy)-6-methyl-2-(2,4,6-trimethyl-phenylamino)-pyridin-3-ylmethyl] ester] the melting point was 55 to 57 °C.
`CCC(CC)Nc1cc(C)nc2c1nc(C)n2-c1c(C)cc(C)cc1C` [Example 282, [2,5-Dimethyl-3-(2,4,6-trimethyl-phenyl)-3H-imidazo[4,5-b]pyridin-7-yl]-(1-ethyl-propyl)-amine] gave a melting point of 101 to 103 °C.
Molecule `CCC(COC)Nc1cc(C)nc(Oc2c(C=O)cccc2OC)c1[N+](=O)[O-]` (stereo not drawn) [Example 114, 3-Methoxy-2-[4-(1-methoxymethyl-propylamino)-6-methyl-3-nitro-pyridin-2-yloxy]-benzaldehyde] has a melting point of 126.5 to 130.5 °C.
With `CCC(CC)Oc1cc(C)nc2c1n(C)c(=O)n2-c1c(C)cc(C)cc1C` [Example 280, 7-(1-Ethyl-propoxy)-1,5-dimethyl-3-(2,4,6-trimethyl-phenyl)-1,3-dihydro-imidazo[4,5-b]pyridin-2-one] the melting point was 151 to 153 °C.
In the case of `CCC(CC)Oc1cc(C)nc(Nc2c(C)cc(C)cc2C)c1C(=O)N(C)C` (as salt: HCl) [Example 193, 4-(1-Ethyl-propoxy)-6,N,N-trimethyl-2-(2,4,6-trimethyl-phenylamino)-nicotinamide], the melting point is reported as 197 to 200 °C.
For `CCN(CC)c1cc(C)nc(Oc2c(C)cc(C)cc2C)c1C` (as salt: HCl) [Example 73, [3,6-dimethyl-2-(2,4,6-trimethyl-phenoxy)-pyridin-4-yl]-diethyl-amine], the melting point was 180 to 181 °C.
`CCC(CC)Oc1cc(C)nc(Nc2c(C)cc(C)cc2C)c1` [Example 203, [4-(1-Ethyl-propoxy)-6-methyl-pyridin-2-yl]-(2,4,6-trimethyl-phenyl)-amine] showed a melting point of 98 to 100 °C.
For `CCC(CC)Oc1cc(C)nc(Nc2c(C)cc(C)cc2C)c1NC(=O)CCl` [Example 237, 2-Chloro-N-[4-(1-ethyl-propoxy)-6-methyl-2-(2,4,6-trimethyl-phenylamino)-pyridin-3-yl]-acetamide], the melting point was 79 to 82 °C.
`CCC(CC)Nc1cc(C)nc(Oc2c(C)cc(Cl)cc2C)c1N` [Example 97, 2-(4-Chloro-2,6-dimethyl-phenoxy)-N4-(1-ethyl-propyl)-6-methyl-pyridine-3,4-diamine] showed a melting point of 72 to 74 °C.
With `CCC(COC)Nc1cc(C)nc(Oc2c(OC)cc(OC)cc2OC)c1[N+](=O)[O-]` (stereo not drawn) [Example 114, (1-Methoxymethyl-propyl)-[6-methyl-3-nitro-2-(2,4,6-trimethoxy-phenoxy)-pyridin-4-yl]-amine] the melting point was 126.8 to 129.5 °C.
With `CCCCN(CC)c1cc(C)nc(Oc2c(C)cc(Cl)cc2C)c1C` (as salt: HCl) [Example 76, Butyl-[2-(4-chloro-2,6-dimethyl-phenoxy)-3,6-dimethyl-pyridin-4-yl]-ethyl-amine] the melting point was 177 to 178 °C.
Molecule `CCC(CC)Nc1cc(C)nc(Nc2c(C)cc(C)cc2C)c1C(N)=O` [Example 232, 4-(1-Ethyl-propylamino)-6-methyl-2-(2,4,6-trimethyl-phenylamino)-nicotinamide] has a melting point of 204 to 206 °C.
Work on `CCN(C)c1cc(C)nc(Oc2c(C)cc(C)cc2C)c1C` (as salt: HCl) [Example 74, [3,6-Dimethyl-2-(2,4,6-trimethyl-phenoxy)-pyridin-4-yl]-ethyl-methyl-amine] yielded a melting point of 173 to 174 °C.
Molecule `CCC(CC)Nc1cc(C)nc(Sc2c(C)cc(C)cc2C)c1C` [Example 69, [3,6-Dimethyl-2-(2,4,6-trimethyl-phenylsulfanyl)-pyridin-4-yl]-(1-ethyl-propyl)-amine] has a melting point of 108 to 110 °C.
Work on `C#CC(CC)Nc1cc(C)nc(Oc2c(C)cc(C)cc2C)c1C(=O)O` (stereo not drawn) [Example 140, 4-(1-Ethyl-prop-2-ynylamino)-6-methyl-2-(2,4,6-trimethyl-phenoxy)-nicotinic acid] yielded a melting point of 131 to 133 °C.
Molecule `CCC(CC)Oc1nc(C)nc(Oc2c(C)cc(C)cc2C)c1C#N` [Example 35, 4-(1-Ethyl-propoxy)-2-methyl-6-(2,4,6-trimethyl-phenoxy)-pyrimidine-5-carbonitrile] has a melting point of 128 to 130 °C.
